Results on 17 compounds are retold here after PubChem BioAssay AID328 (DTP/NCI, 2004).

The assay has as its system BDF1 mice, P388 leukemia ip, median survival T/C. The assay is described as follows: NCI In Vivo Anticancer Drug Screen. Data for tumor model P388 Leukemia (intraperitoneal) in B6D2F1 (BDF1) mice. The note with it: endpoint: median survival time, higher = longer survival. In short, it runs like this: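 Compound-treated tumour-bearing mice were compared with vehicle-treated controls. Survival was recorded, and the value is the treated-group measurement divided by the control-group measurement (T/C).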

[1] abbreviates: dose: 100.0 mg/kg/injection, schedule: Q04DX003 (ip), vehicle: saline.
Where [2] appears, read: dose: 200.0 mg/kg/injection, schedule: Q04DX003 (ip), vehicle: saline.
Where [3] appears, read: dose: 400.0 mg/kg/injection, schedule: Q04DX003 (ip), vehicle: saline.
[4] abbreviates: dose: 50.0 mg/kg/injection, schedule: Q04DX003 (ip), vehicle: saline.
Where [5] appears, read: dose: 50.0 mg/kg/injection, schedule: Q01DX009 (ip), vehicle: saline with Tween-80.
[6] abbreviates: dose: 100.0 mg/kg/injection, schedule: Q04DX003 (ip), vehicle: saline with Tween-80.
Setting [7] is: dose: 200.0 mg/kg/injection, schedule: Q04DX003 (ip), vehicle: saline with Tween-80.
The mark [8] stands for this setting: dose: 100.0 mg/kg/injection, schedule: Q01DX009 (ip), vehicle: saline with Tween-80.
Setting [9] is: dose: 200.0 mg/kg/injection, schedule: Q01DX009 (ip), vehicle: saline with Tween-80.
[10] abbreviates: dose: 400.0 mg/kg/injection, schedule: Q04DX003 (ip), vehicle: saline with Tween-80.

Inconclusive results and toxic doses are left out.

Consider `COc1cc2ccc3c(c2cc1OC)C=NCC3`, for which the T/C runs as follows: (dose: 1.56 mg/kg/injection, schedule: Q01DX009 (ip), vehicle: saline) 100 % of control; (dose: 1.56 mg/kg/injection, schedule: Q04DX003 (ip), vehicle: saline) 95 % of control; (dose: 3.13 mg/kg/injection, schedule: Q01DX009 (ip), vehicle: saline) 110 % of control; (dose: 3.13 mg/kg/injection, schedule: Q04DX003 (ip), vehicle: saline) 100 % of control; (dose: 6.25 mg/kg/injection, schedule: Q01DX009 (ip), vehicle: saline) 110 % of control; (dose: 6.25 mg/kg/injection, schedule: Q04DX003 (ip), vehicle: saline) 104 % of control.

With `COC(=O)C(=NO)C(=O)OC`, the T/C is 104 % of control (dose: 100.0 mg/kg/injection, schedule: Q01DX009 (ip), vehicle: saline); 96 % of control (dose: 200.0 mg/kg/injection, schedule: Q01DX009 (ip), vehicle: saline); 96 % of control (dose: 400.0 mg/kg/injection, schedule: Q01DX009 (ip), vehicle: saline).

In the case of `O=S(=O)(O)c1cccc2cccc(Cl)c12`, the T/C reads like this: under setting [1], 100 % of control; under setting [2], 95 % of control; under setting [3], 100 % of control.

For `CN(C)/C=N/n1cnc2c(ncn2C2OC(CO)C(O)C2O)c1=O` (centres undefined), the T/C under setting [4] was 108 % of control, the T/C under setting [1] was 108 % of control, the T/C under setting [2] was 111 % of control and the T/C under setting [3] was 101 % of control.

For the compound `O=C(Nc1ccc(NC2=NCCN2)cc1)c1cccc(C(=O)Nc2ccc(NC3=NCCN3)cc2)c1`, the T/C is 116 % of control (dose: 5.0 mg/kg/injection, schedule: Q01DX009 (ip), vehicle: saline with Tween-80); 100 % of control (dose: 5.0 mg/kg/injection, schedule: Q04DX003 (ip), vehicle: saline with Tween-80); 100 % of control (dose: 10.0 mg/kg/injection, schedule: Q04DX003 (ip), vehicle: saline with Tween-80); 150 % of control (dose: 13.0 mg/kg/injection, schedule: Q01DX009 (ip), vehicle: saline with Tween-80); 122 % of control (dose: 20.0 mg/kg/injection, schedule: Q04DX003 (ip), vehicle: saline with Tween-80); 122 % of control (dose: 30.0 mg/kg/injection, schedule: Q01DX009 (ip), vehicle: saline with Tween-80).

Regarding `O=[N+]([O-])c1cc([N+](=O)[O-])c2ccccc2c1NS(=O)(=O)c1ccc(Br)cc1`, the T/C was 112 % of control (dose: 25.0 mg/kg/injection, schedule: Q01DX009 (ip), vehicle: saline with Tween-80) and 113 % of control under setting [5].

For the compound `Clc1ccc2nc(CBr)cnc2c1`, the T/C is, setting by setting: (dose: 12.5 mg/kg/injection, schedule: Q01DX009 (ip), vehicle: other) 104 % of control; (dose: 12.5 mg/kg/injection, schedule: Q01DX009 (ip), vehicle: saline) 120 % of control; (dose: 25.0 mg/kg/injection, schedule: Q01DX009 (ip), vehicle: other) 109 % of control; (dose: 25.0 mg/kg/injection, schedule: Q01DX009 (ip), vehicle: saline) 120 % of control; (dose: 25.0 mg/kg/injection, schedule: Q04DX003 (ip), vehicle: saline with Tween-80) 95 % of control; (dose: 35.0 mg/kg/injection, schedule: Q04DX003 (ip), vehicle: saline) 108 % of control. Further, the T/C was 118 % of control (dose: 50.0 mg/kg/injection, schedule: Q01DX009 (ip), vehicle: other); 118 % of control under setting [5]; 110 % of control (dose: 50.0 mg/kg/injection, schedule: Q01DX009 (ip), vehicle: saline); 109 % of control (dose: 50.0 mg/kg/injection, schedule: Q04DX003 (ip), vehicle: saline with Tween-80); 116 % of control (dose: 55.0 mg/kg/injection, schedule: Q04DX003 (ip), vehicle: saline); 116 % of control (dose: 80.0 mg/kg/injection, schedule: Q04DX003 (ip), vehicle: saline). In addition, the T/C is 109 % of control under setting [6] and 103 % of control under setting [7].

Turning to `O=CNc1ccccc1Cl`, the T/C (dose: 100.0 mg/kg/injection, schedule: Q01DX001 (ip), vehicle: saline with Tween-80) was 112 % of control; the T/C (dose: 200.0 mg/kg/injection, schedule: Q01DX001 (ip), vehicle: saline with Tween-80) was 91 % of control; the T/C (dose: 400.0 mg/kg/injection, schedule: Q01DX001 (ip), vehicle: saline with Tween-80) was 91 % of control.

Turning to `O=C(Nc1ccc([N+](=O)[O-])cc1Cl)N(CCO)C1CCCCC1`, the T/C is 105 % of control under setting [8]; 100 % of control under setting [9]; 90 % of control (dose: 400.0 mg/kg/injection, schedule: Q01DX009 (ip), vehicle: saline with Tween-80).

On to `[N-]=[N+]=Nc1ccc(Cl)cc1C(=O)c1ccccc1`, for which the T/C (dose: 25.0 mg/kg/injection, schedule: Q04DX003 (ip), vehicle: saline) was 104 % of control; the T/C under setting [4] was 90 % of control; the T/C under setting [1] is 109 % of control.

Regarding `CC1=C2CC(C)(C)/C=C\C(=O)/C(C)=C\C3=CC(C)(O)CC3(O2)C1=O` (centres undefined), the T/C is, setting by setting: (dose: 0.16 mg/kg/injection, schedule: Q01DX009 (ip), vehicle: saline + alcohol) 93 % of control; (dose: 0.31 mg/kg/injection, schedule: Q01DX009 (ip), vehicle: saline + alcohol) 118 % of control; (dose: 0.62 mg/kg/injection, schedule: Q01DX009 (ip), vehicle: saline + alcohol) 120 % of control; (dose: 1.25 mg/kg/injection, schedule: Q01DX009 (ip), vehicle: saline + alcohol) 118 % of control; (dose: 10.0 mg/kg/injection, schedule: Q01DX009 (ip), vehicle: saline + alcohol) 154 % of control.

`Cc1c2oc3c(C)ccc(C(=O)NC4C(=O)NC(C(C)C)C(=O)N5CCCC5C(=O)N(C)CC(=O)N(C)C(C(C)C)C(=O)OC4C)c3nc-2c(C(=O)NC2C(=O)NC(C(C)C)C(=O)N3CCCC3C(=O)N(C)CC(=O)N(C)C(C(C)C)C(=O)OC2C)c(NCCCO)c1=O` (centres undefined): the T/C (dose: 0.05 mg/kg/injection, schedule: Q01DX009 (ip), vehicle: saline + alcohol) is 150 % of control; the T/C (dose: 0.1 mg/kg/injection, schedule: Q01DX009 (ip), vehicle: saline + alcohol) was 172 % of control; the T/C (dose: 0.2 mg/kg/injection, schedule: Q01DX009 (ip), vehicle: saline + alcohol) is 210 % of control; the T/C (dose: 0.3 mg/kg/injection, schedule: Q04DX003 (ip), vehicle: saline + alcohol) is 169 % of control; the T/C (dose: 0.4 mg/kg/injection, schedule: Q01DX009 (ip), vehicle: saline + alcohol) is 226 % of control; the T/C (dose: 0.6 mg/kg/injection, schedule: Q04DX003 (ip), vehicle: saline + alcohol) was 191 % of control. Also, the T/C is 153 % of control (dose: 0.8 mg/kg/injection, schedule: Q01DX001 (ip), vehicle: saline + alcohol); 285 % of control (dose: 0.8 mg/kg/injection, schedule: Q01DX009 (ip), vehicle: saline + alcohol); 200 % of control (dose: 1.2 mg/kg/injection, schedule: Q04DX003 (ip), vehicle: saline + alcohol); 261 % of control (dose: 2.4 mg/kg/injection, schedule: Q04DX003 (ip), vehicle: saline + alcohol); 207 % of control (dose: 3.2 mg/kg/injection, schedule: Q01DX001 (ip), vehicle: saline + alcohol); 248 % of control (dose: 4.8 mg/kg/injection, schedule: Q04DX003 (ip), vehicle: saline + alcohol). Further, the T/C (dose: 6.4 mg/kg/injection, schedule: Q01DX001 (ip), vehicle: saline + alcohol) is 198 % of control.

In the case of `CCCOC(=O)C(F)C(Br)C(=O)OCCC` (centres undefined), the T/C runs as follows: under setting [5], 89 % of control; under setting [8], 99 % of control; under setting [9], 118 % of control.

As to `CCCCCC1(C)OCC(C)O1` (centres undefined), the T/C runs as follows: under setting [5], 101 % of control; under setting [8], 106 % of control; under setting [9], 109 % of control.

As to `CCOC(=O)NC12c3ccccc3C(c3ccccc31)C(C(=O)O)C2C(=O)O` (centres undefined), the T/C runs as follows: under setting [6], 118 % of control; under setting [7], 118 % of control; under setting [10], 118 % of control.

Take `CCC(=O)c1ccc(OCC(O)CN2CCN(c3ccccc3OC)CC2)cc1` (centres undefined): the T/C by setting is: under setting [6], 104 % of control; under setting [7], 104 % of control; under setting [10], 119 % of control.

Turning to `Cn1cc(N)c2ccccc2c1=O`, the T/C runs as follows: (dose: 50.0 mg/kg/injection, schedule: Q01DX005 (ip), vehicle: suspension in saline) 92 % of control; (dose: 100.0 mg/kg/injection, schedule: Q01DX005 (ip), vehicle: suspension in saline) 120 % of control.
